Active and inactive are the calls of the source. How the calls were made is not given here.
Test system: rodent carcinogenicity bioassays, tumor incidence
Test: CCRIS carcinogenicity studies
Procedure, shortened: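 Archive of carcinogenicity, mutagenicity, tumor promotion and tumor inhibition results drawn from journals, NCI reports and other sources, expert-reviewed; covers 1985-2011 and is no longer updated.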

ClC(Cl)(Cl)Cl
carcinogen call (Species: FISH, Strain/Sex: RAINBOW TROUT, Route: INTRAPERITONEAL, Dose: 0, 1 ML/KG AT 21 D INTERVALS FOR A TOTAL OF 7 DOSES (STUDY DURATION: 6 MO)): inactive; negative | carcinogen call (Species: MOUSE, Route: ORAL, GAVAGE, Tumor Site: Type of Lesion: LIVER: HEPATOMA, HEPATOCELLULAR CARCINOMA): active; positive | carcinogen call (Species: Mouse, Strain/Sex: BDF1/Female (50/group), Route: Inhalation, Dose: 0, 5, 25, 125 ppm (v/v) 6 hr/d, 5 d/wk for 104 wk, Dose: 0, 5, 25, 125 ppm (v/v) 6 hr/d, 5 d/wk for 104 wk, Tumor Site: Type of Lesion: Liver: hepatocellular carcinoma (2/50; 1/49; 33/50; 48/49), hepatocellular adenoma (2/50; 8/49; 17/50; 5/49). Adrenal Gl, Tumor Site: Type of Lesion: Liver: hepatocellular carcinoma (2/50; 1/49; 33/50; 48/49), hepatocellular adenoma (2/50; 8/49; 17/50; 5/49). Adrenal Gl): active; positive | carcinogen call (Species: Mouse, Strain/Sex: BDF1/Male (50/group), Route: Inhalation, Dose: 0, 5, 25, 125 ppm (v/v) 6 hr/d, 5 d/wk for 104 wk, Dose: 0, 5, 25, 125 ppm (v/v) 6 hr/d, 5 d/wk for 104 wk, Tumor Site: Type of Lesion: Liver: hepatocellular carcinoma (17/50; 12/50; 44/50; 47/50), hepatocellular adenoma (9/50; 10/50; 27/50; 16/50). Adrena, Tumor Site: Type of Lesion: Liver: hepatocellular carcinoma (17/50; 12/50; 44/50; 47/50), hepatocellular adenoma (9/50; 10/50; 27/50; 16/50). Adrena): active; positive (dose related metastasis of liver tumors to lung) | carcinogen call (Species: RAT, Route: SUBCUTANEOUS, Tumor Site: Type of Lesion: LIVER: HEPATOCELLULAR CARCINOMA): active; positive | carcinogen call (Species: Rat, Strain/Sex: F344/Female (50/group), Route: Inhalation, Dose: 0, 5, 25, 125 ppm (v/v) 6 hr/d, 5 d/wk for 104 wk, Dose: 0, 5, 25, 125 ppm (v/v) 6 hr/d, 5 d/wk for 104 wk, Tumor Site: Type of Lesion: Liver: hepatocellular carcinoma (0/50; 0/50; 3/50; 15/50), hepatocellular adenoma (0/50; 0/50; 40/50), Tumor Site: Type of Lesion: Liver: hepatocellular carcinoma (0/50; 0/50; 3/50; 15/50), hepatocellular adenoma (0/50; 0/50; 40/50)): active; positive | carcinogen call (Species: Rat, Strain/Sex: F344/Male (50/group), Route: Inhalation, Dose: 0, 5, 25, 125 ppm (v/v) 6 hr/d, 5 d/wk for 104 wk, Dose: 0, 5, 25, 125 ppm (v/v) 6 hr/d, 5 d/wk for 104 wk, Tumor Site: Type of Lesion: Liver: hepatocellular carcinoma (1/50; 0/50; 32/50), hepatocellular adenoma (0/50; 1/50; 21/50), Tumor Site: Type of Lesion: Liver: hepatocellular carcinoma (1/50; 0/50; 32/50), hepatocellular adenoma (0/50; 1/50; 21/50)): active; positive

CCN(CC)CCNc1ccc(CO)c2sc3ccccc3c(=O)c12
carcinogen call (Species: MOUSE, Route: INTRAMUSCULAR, Tumor Site: Type of Lesion: LIVER): active; positive

Cc1c([N+](=O)[O-])c2ccccc2c2ccc3ccccc3c12
carcinogen call (Species: MOUSE, Strain/Sex: SWISS/FEMALE, Route: INTRAPERITONEAL, Dose: 0, 100 NMOL (TOTAL DOSE) ADMINISTERED 1/7, 2/7 AND 4/7 ON DAY 1, 8 AND 15 RESPECTIVELY (STUDY DURATION: 32 WK)): inactive; negative | carcinogen call (Species: MOUSE, Strain/Sex: SWISS/MALE, Route: INTRAPERITONEAL, Dose: 0, 100 NMOL (TOTAL DOSE) ADMINISTERED 1/7, 2/7 AND 4/7 ON DAY 1, 8 AND 15 RESPECTIVELY (STUDY DURATION: 32 WK), Tumor Site: Type of Lesion: LIVER: TUMOR): active; positive

O=C/C=C/c1ccccc1
carcinogen call (Species: MOUSE, Strain/Sex: B6C3F1/MALE, FEMALE (50/GROUP), Route: ORAL, Dose: 0, 1000, 2100, 4100 PPM MICROENCAPSULATED IN DIET FOR 2 YR (STUDY DURATION: 2 YR), Dose: 0, 1000, 2100, 4100 PPM MICROENCAPSULATED IN DIET FOR 2 YR (STUDY DURATION: 2 YR), Tumor Site: Type of Lesion: NONE): inactive; negative | carcinogen call (Species: RAT, Strain/Sex: F344/N/MALE, FEMALE (50/GROUP), Route: ORAL, Dose: 0, 1000, 2100, 4100 PPM MICROENCAPSULATED IN DIET FOR 2 YR (STUDY DURATION: 2 YR), Dose: 0, 1000, 2100, 4100 PPM MICROENCAPSULATED IN DIET FOR 2 YR (STUDY DURATION: 2 YR), Tumor Site: Type of Lesion: NONE): inactive; negative

C=C(Cl)Cl
carcinogen call (Species: FISH, Strain/Sex: SHASTA RAINBOW TROUT/MALE, FEMALE, Route: ORAL, Dose: 0, 2000 PPM IN DIET FOR 18 MO (STUDY DURATION: 18 MO)): inactive; negative | carcinogen call (Species: MOUSE, Route: INHALATION, Tumor Site: Type of Lesion: KIDNEY, LUNG, LIVER, Tumor Site: Type of Lesion: KIDNEY, LUNG, LIVER): active; positive | carcinogen call (Species: RAT, Strain/Sex: SPRAGUE-DAWLEY/FEMALE, Route: GAVAGE, Dose: 0, 0.5, 5, 10, 20 MG/KG BW IN OLIVE OIL 1/D 4-5 D/WK FOR 52-59 WK (STUDY DURATION: LIFETIME), Dose: 0, 0.5, 5, 10, 20 MG/KG BW IN OLIVE OIL 1/D 4-5 D/WK FOR 52-59 WK (STUDY DURATION: LIFETIME), Tumor Site: Type of Lesion: [BRAIN WAS ONLY SITE EVALUATED]): inactive; negative | carcinogen call (Species: RAT, Strain/Sex: SPRAGUE-DAWLEY/FEMALE, Route: INHALATION, Dose: 0, 10, 25, 50, 100, 150 PPM IN AIR 4 HR/D 4-5 D/WK FOR 52 WK (STUDY DURATION: LIFETIME), Dose: 0, 10, 25, 50, 100, 150 PPM IN AIR 4 HR/D 4-5 D/WK FOR 52 WK (STUDY DURATION: LIFETIME), Tumor Site: Type of Lesion: [BRAIN WAS ONLY SITE EVALUATED]): inactive; negative | carcinogen call (Species: RAT, Strain/Sex: SPRAGUE-DAWLEY/FEMALE, Route: INHALATION, Dose: 0, 100 PPM 4 HR/D 5 D/WK FOR 7 WK THEN 7 HR/D 5 D/WK FOR 8 WK ADMINISTERED TO RAT EMBRYOS BEGINNING ON THE 12TH DAY OF G): inactive; negative | carcinogen call (Species: RAT, Strain/Sex: SPRAGUE-DAWLEY/FEMALE, Route: INHALATION, Dose: 0, 100 PPM 4 HR/D 5 D/WK FOR 7 WK THEN 7 HR/D 5 D/WK FOR 97 WK ADMINISTERED TO BREEDER RATS (STUDY DURATION: 104 WK)): inactive; negative | carcinogen call (Species: RAT, Strain/Sex: SPRAGUE-DAWLEY/FEMALE, Route: INHALATION, Dose: 0, 100 PPM 4 HR/D 5 D/WK FOR 7 WK THEN 7 HR/D 5 D/WK FOR 97 WK ADMINISTERED TO RAT EMBRYOS BEGINNING ON 12TH DAY OF GEST, Tumor Site: Type of Lesion: HEMATOPOIETIC SYSTEM: LEUKEMIA): active; positive | carcinogen call (Species: RAT, Strain/Sex: SPRAGUE-DAWLEY/FEMALE, Route: ORAL, Dose: 0, 50, 100, 200 PPM IN DRINKING WATER FOR 2 YR (STUDY DURATION: 2 YR), Dose: 0, 50, 100, 200 PPM IN DRINKING WATER FOR 2 YR (STUDY DURATION: 2 YR)): inactive; negative | carcinogen call (Species: RAT, Strain/Sex: SPRAGUE-DAWLEY/MALE, Route: GAVAGE, Dose: 0, 0.5, 5, 10, 20 MG/KG BW IN OLIVE OIL 1/D 4-5 D/WK FOR 52-59 WK (STUDY DURATION: LIFETIME), Dose: 0, 0.5, 5, 10, 20 MG/KG BW IN OLIVE OIL 1/D 4-5 D/WK FOR 52-59 WK (STUDY DURATION: LIFETIME), Tumor Site: Type of Lesion: [BRAIN WAS ONLY SITE EVALUATED]): inactive; negative | carcinogen call (Species: RAT, Strain/Sex: SPRAGUE-DAWLEY/MALE, Route: INHALATION, Dose: 0, 10, 25, 50, 100, 150 PPM IN AIR 4 HR/D 4-5 D/WK FOR 52 WK (STUDY DURATION: LIFETIME), Dose: 0, 10, 25, 50, 100, 150 PPM IN AIR 4 HR/D 4-5 D/WK FOR 52 WK (STUDY DURATION: LIFETIME), Tumor Site: Type of Lesion: [BRAIN WAS ONLY SITE EVALUATED]): inactive; negative | carcinogen call (Species: RAT, Strain/Sex: SPRAGUE-DAWLEY/MALE, Route: INHALATION, Dose: 0, 100 PPM 4 HR/D 5 D/WK FOR 7 WK THEN 7 HR/D 5 D/WK FOR 8 WK ADMINISTERED TO RAT EMBRYOS BEGINNING ON THE 12TH DAY OF G): inactive; negative | carcinogen call (Species: RAT, Strain/Sex: SPRAGUE-DAWLEY/MALE, Route: INHALATION, Dose: 0, 100 PPM 4 HR/D 5 D/WK FOR 7 WK THEN 7 HR/D 5 D/WK FOR 97 WK ADMINISTERED TO RAT EMBRYOS BEGINNING ON 12TH DAY OF GEST): inactive; negative | carcinogen call (Species: RAT, Strain/Sex: SPRAGUE-DAWLEY/MALE, Route: ORAL, Dose: 0, 50, 100, 200 PPM IN DRINKING WATER FOR 2 YR (STUDY DURATION: 2 YR), Dose: 0, 50, 100, 200 PPM IN DRINKING WATER FOR 2 YR (STUDY DURATION: 2 YR)): inactive; negative | carcinogen call (Species: RAT, Strain/Sex: SPRAGUE-DAWLEY, Route: INHALATION, Tumor Site: Type of Lesion: MAMMARY GLAND: FIBROADENOMA, CARCINOMA): active; positive

— PubChem BioAssay AID1259411 (Chemical Carcinogenesis Research Information System (CCRIS), 2018)
